Laboratory results from US11890288B2, “Sulfonamide or sulfinamide compound having effect of inducing BRD4 protein degradation and pharmaceutical use thereof” (MITSUBISHI TANABE PHARMA CORPORATION, priority 2020, dated 2024).
pIC50: −log10 of the molar value.

Assays:
[1] = test system: human prostate cancer LNCaP cells; experiment: Cytotoxic action on LNCaP cells (WST-8, 96 hr); type: cell-based; conditions: 96 hr culture
Procedure, shortened: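 Viability read by WST-8 after 96 hr compound exposure of cells seeded overnight in 10% FBS/RPMI1640 (37° C, 5% CO2). Survival normalised to compound-free wells as 100%; IC50 obtained by straight-line interpolation between the two concentrations flanking 50% survival.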

BRD4 protein = BRD4 protein (Homo sapiens (Human), UniProt O60885); experiment: BRD4 protein degradation inducing action in LNCaP cells (immunofluorescence, 6 hr); type: cell-based; conditions: anti-BRD4 fluorescence intensity
Procedure, shortened: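 LNCaP cells in 10% FBS/RPMI1640 exposed to compound for 6 hr, fixed, permeabilized and immunostained for BRD4 with Alexa Fluor 546 secondary; fluorescence (ex 560, em 572 nm) read by imaging. DC50 = concentration giving 50% of untreated signal, interpolated linearly between the two bracketing points.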

| DC50 (BRD4 protein) [nM] | SMILES | pIC50 [1] |
| --- | --- | --- |
| 0.23 | COC(=O)C[C@@H]1N=C(c2ccc(-c3ccc(C(=O)NCc4ccc(S(=O)(=O)Nc5ccc(C)c6c(C#N)c[nH]c56)cc4)c(F)c3)cc2)c2c(sc(C)c2C)-n2c(C)nnc21 [Example 2, methyl [(6S)-4-{4′-[({4-[(3-cyano-4-methyl-1H-indol-7-yl)sulfamoyl]phenyl}methyl)carbamoyl]-3′-fluoro[1,1′-biphenyl]-4-yl}-2,3,9-trimethyl-6H-thieno[3,2-f][1,2,4]triazolo[4,3-a][1,4]diazepin-6-yl]acetate] | 9.46 |
| 0.17 | CCc1ccc(NS(=O)(=O)c2ccc([C@@H](C)NC(=O)c3ccc(-c4ccc(C5=N[C@@H](CC(=O)OC)c6nnc(C)n6-c6sc(C)c(C)c65)cc4)c(F)c3)cc2)c2[nH]cc(C#N)c12 [Example Compound 121, methyl [(6S)-4-(4′-{[(1R)-1-{4-[(3-cyano-4-ethyl-1H-indol-7-yl)sulfamoyl]phenyl}ethyl]carbamoyl}-2′-fluoro[1,1′-biphenyl]-4-yl)-2,3,9-trimethyl-6H-thieno[3,2-f][1,2,4]triazolo[4,3-a][1,4]diazepin-6-yl]acetate] | 9.66 |
| 0.059 | COC(=O)C[C@@H]1N=C(c2ccc(-c3ccc(C(=O)N[C@H](C)c4ccc(S(=O)(=O)Nc5ccc(C)c6c(C#N)c[nH]c56)cc4)c(C)c3)cc2)c2c(sc(C)c2C)-n2c(C)nnc21 [Example 86, methyl [(6S)-4-(4′-{[(1R)-1-{4-[(3-cyano-4-methyl-1H-indol-7-yl)sulfamoyl]phenyl}ethyl]carbamoyl}-3′-methyl[1,1′-biphenyl]-4-yl)-2,3,9-trimethyl-6H-thieno[3,2-f][1,2,4]triazolo[4,3-a][1,4]diazepin-6-yl]acetate] | 9.46 |
| 0.091 | COC(=O)C[C@@H]1N=C(c2ccc(-c3ccc(C(=O)N[C@H](C)c4ccc(S(=O)(=O)Nc5ccc(C)c6c(C#N)c[nH]c56)cc4)c(F)c3F)cc2)c2c(sc(C)c2C)-n2c(C)nnc21 [Example 99, methyl [(6S)-4-(4′-{[(1R)-1-{4-[(3-cyano-4-methyl-1H-indol-7-yl)sulfamoyl]phenyl}ethyl]carbamoyl}-2′,3′-difluoro[1,1′-biphenyl]-4-yl)-2,3,9-trimethyl-6H-thieno[3,2-f][1,2,4]triazolo[4,3-a][1,4]diazepin-6-yl]acetate] | 9.85 |
| 0.38 | Cc1sc2c(c1C)C(c1ccc(-c3ccc(C(=O)NCc4ccc(S(=O)(=O)Nc5ccc(C)c6c(C#N)c[nH]c56)cc4)c(Cl)c3)cc1)=N[C@@H](CC(=O)OC(C)(C)C)c1nnc(C)n1-2 [Example Compound 140, t-butyl [(6S)-4-{3′-chloro-4′-[({4-[(3-cyano-4-methyl-1H-indol-7-yl)sulfamoyl]phenyl}methyl)carbamoyl][1,1′-biphenyl]-4-yl}-2,3,9-trimethyl-6H-thieno[3,2-f][1,2,4]triazolo[4,3-a][1,4]diazepin-6-yl]acetate] | 9.28 |
| 0.095 | CCc1ccc(NS(=O)(=O)c2ccc(CCNC(=O)c3ccc(-c4ccc(C5=N[C@@H](CC(=O)OC)c6nnc(C)n6-c6sc(C)c(C)c65)cc4)c(F)c3)cc2)c2[nH]cc(C#N)c12 [Example Compound 124, methyl [(6S)-4-{4′-[(2-{4-[(3-cyano-4-ethyl-1H-indol-7-yl)sulfamoyl]phenyl}ethyl)carbamoyl]-2′-fluoro[1,1′-biphenyl]-4-yl}-2,3,9-trimethyl-6H-thieno[3,2-f][1,2,4]triazolo[4,3-a][1,4]diazepin-6-yl]acetate] | 9.57 |
| 0.041 | COC(=O)C[C@@H]1N=C(c2ccc(-c3ccc(C(=O)N[C@H](C)c4ccc(S(=O)(=O)Nc5ccc(C)c6c(C#N)c[nH]c56)cc4)nc3)cc2)c2c(sc(C)c2C)-n2c(C)nnc21 [Example 92, methyl {(6S)-4-[4-(6-{[(1R)-1-{4-[(3-cyano-4-methyl-1H-indol-7-yl)sulfamoyl]phenyl}ethyl]carbamoyl}pyridin-3-yl)phenyl]-2,3,9-trimethyl-6H-thieno[3,2-f][1,2,4]triazolo[4,3-a][1,4]diazepin-6-yl}acetate] | 10.06 |
| 0.25 | CCc1ccc(NS(=O)(=O)c2ccc(CNC(=O)c3ccc(-c4ccc(C5=N[C@@H](CC(=O)OC)c6nnc(C)n6-c6sc(C)c(C)c65)cc4)cc3F)cc2)c2[nH]cc(C#N)c12 [Example 112, methyl [(6S)-4-{4′-[({4-[(3-cyano-4-ethyl-1H-indol-7-yl)sulfamoyl]phenyl}methyl)carbamoyl]-3′-fluoro[1,1′-biphenyl]-4-yl}-2,3,9-trimethyl-6H-thieno[3,2-f][1,2,4]triazolo[4,3-a][1,4]diazepin-6-yl]acetate] | 9.36 |
| 0.048 | COC(=O)C[C@@H]1N=C(c2ccc(-c3cnc(C(=O)NCc4ccc(S(=O)(=O)Nc5ccc(C)c6c(C#N)c[nH]c56)cc4)c(F)c3)cc2)c2c(sc(C)c2C)-n2c(C)nnc21 [Example 77, methyl [(6S)-4-(4-{6-[({4-[(3-cyano-4-methyl-1H-indol-7-yl)sulfamoyl]phenyl}methyl)carbamoyl]-5-fluoropyridin-3-yl}phenyl)-2,3,9-trimethyl-6H-thieno[3,2-f][1,2,4]triazolo[4,3-a][1,4]diazepin-6-yl]acetate] | 9.80 |
| 1.4 | COC(=O)C[C@@H]1N=C(c2ccc(-c3ccc(C(=O)NCc4ccc(S(=O)(=O)Nc5ccc(C)c6c(C#N)c[nH]c56)cc4)cc3)cc2)c2c(sc(CO)c2C)-n2c(C)nnc21 [Example 55, methyl [(6S)-4-{4′-[({4-[(3-cyano-4-methyl-1H-indol-7-yl)sulfamoyl]phenyl}methyl)carbamoyl][1,1′-biphenyl]-4-yl}-2-(hydroxymethyl)-3,9-dimethyl-6H-thieno[3,2-f][1,2,4]triazolo[4,3-a][1,4]diazepin-6-yl]acetate] | 8.52 |
| 0.26 | COC(=O)C[C@@H]1N=C(c2ccc(-c3cnc(C(=O)NCc4ccc(S(=O)(=O)Nc5ccc(C)c6c(C#N)c[nH]c56)cc4)nc3)cc2)c2c(sc(C)c2C)-n2c(C)nnc21 [Example Compound 146, methyl [(6S)-4-(4-{2-[({4-[(3-cyano-4-methyl-1H-indol-7-yl)sulfamoyl]phenyl}methyl)carbamoyl]pyrimidin-5-yl}phenyl)-2,3,9-trimethyl-6H-thieno[3,2-f][1,2,4]triazolo[4,3-a][1,4]diazepin-6-yl]acetate] | 8.89 |
